Data as given in ChEMBL document CHEMBL4251652, “Chameleon-like behavior of indolylpiperidines in complex with cholinesterases targets: Potent butyrylcholinesterase inhibitors” (Eur J Med Chem, 2018).
The source made the active and inactive calls. The calls are words filed in the database; no cut-off is given here.

What was measured:
in vitro [1] = settings: PAMPA
Description: Permeability of the compound after 2.5 hrs by PAMPA

in vitro [2] = settings: PAMPA; remark: listed apart in the source
Description: Permeability of the compound at 500 uM after 8 hrs by PAMPA

Acetylcholinesterase [3] = target: T1, Acetylcholinesterase (Homo sapiens, UniProt P22303); test: Inhibition of recombinant human AChE using acetylthiocholine iodide as substrate pretreated for 5 mins followed by substrate addition measured for 5 mins by Ellman's method
T1 sequence (P22303 whole entry): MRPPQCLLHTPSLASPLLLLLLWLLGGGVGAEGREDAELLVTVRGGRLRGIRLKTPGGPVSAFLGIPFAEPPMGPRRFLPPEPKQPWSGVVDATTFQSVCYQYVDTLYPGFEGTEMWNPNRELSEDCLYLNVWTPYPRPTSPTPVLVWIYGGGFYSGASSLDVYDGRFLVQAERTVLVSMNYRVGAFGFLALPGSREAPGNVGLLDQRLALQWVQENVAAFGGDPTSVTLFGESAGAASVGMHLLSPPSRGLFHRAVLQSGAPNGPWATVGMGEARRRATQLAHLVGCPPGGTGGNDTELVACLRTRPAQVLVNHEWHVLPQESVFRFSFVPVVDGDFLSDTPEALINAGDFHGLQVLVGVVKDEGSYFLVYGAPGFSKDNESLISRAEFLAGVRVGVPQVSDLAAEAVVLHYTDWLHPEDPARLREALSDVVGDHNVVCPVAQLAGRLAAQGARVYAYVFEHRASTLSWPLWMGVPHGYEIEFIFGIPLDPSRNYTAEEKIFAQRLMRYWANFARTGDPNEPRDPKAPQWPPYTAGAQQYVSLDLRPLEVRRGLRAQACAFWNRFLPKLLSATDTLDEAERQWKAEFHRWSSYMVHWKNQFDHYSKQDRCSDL

Cholinesterase [4] = target: T2, Cholinesterase (Homo sapiens, UniProt P06276); test: Inhibition of recombinant human serum BuChE using butyrylthiocholine iodide as substrate pretreated for 5 mins followed by substrate addition measured for 5 mins by Ellman's method
T2 sequence (P06276 whole entry): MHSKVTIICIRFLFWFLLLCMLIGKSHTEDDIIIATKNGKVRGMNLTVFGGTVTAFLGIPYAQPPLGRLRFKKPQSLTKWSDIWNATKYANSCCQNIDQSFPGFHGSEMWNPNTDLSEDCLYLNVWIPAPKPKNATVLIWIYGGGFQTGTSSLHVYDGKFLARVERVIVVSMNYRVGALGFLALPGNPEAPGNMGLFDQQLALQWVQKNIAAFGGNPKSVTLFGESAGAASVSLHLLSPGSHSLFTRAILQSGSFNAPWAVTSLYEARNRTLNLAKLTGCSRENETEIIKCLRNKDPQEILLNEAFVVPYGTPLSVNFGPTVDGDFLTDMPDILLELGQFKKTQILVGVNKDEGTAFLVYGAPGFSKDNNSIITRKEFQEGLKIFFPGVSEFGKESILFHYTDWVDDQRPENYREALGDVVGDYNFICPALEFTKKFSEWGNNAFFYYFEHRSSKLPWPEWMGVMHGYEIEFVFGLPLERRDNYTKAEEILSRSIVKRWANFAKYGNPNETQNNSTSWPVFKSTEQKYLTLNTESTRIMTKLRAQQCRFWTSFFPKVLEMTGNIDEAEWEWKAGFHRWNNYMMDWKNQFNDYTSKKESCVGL

Cholinesterase [5] = target: T2, Cholinesterase; test: Mixed-type inhibition of recombinant human serum BuChE at 0.5 to 2 nM using varying levels of butyrylthiocholine iodide as substrate pretreated for 5 mins followed by substrate addition measured for 5 mins by Lineweaver-Burk plot analysis
Acetylcholinesterase [6] = target: T1, Acetylcholinesterase; test: Competitive inhibition of recombinant human AChE at 1 to 10 uM using varying levels of acetylthiocholine iodide as substrate pretreated for 5 mins followed by substrate addition measured for 5 mins by Lineweaver-Burk plot analysis
[7] = target: Cholinesterase (Equus caballus) (UniProt P81908); test: Binding affinity to equine serum BuChE at 20-fold excess by STD-NMR menthod
Cholinesterase (Equus caballus), sequence (P81908 whole entry): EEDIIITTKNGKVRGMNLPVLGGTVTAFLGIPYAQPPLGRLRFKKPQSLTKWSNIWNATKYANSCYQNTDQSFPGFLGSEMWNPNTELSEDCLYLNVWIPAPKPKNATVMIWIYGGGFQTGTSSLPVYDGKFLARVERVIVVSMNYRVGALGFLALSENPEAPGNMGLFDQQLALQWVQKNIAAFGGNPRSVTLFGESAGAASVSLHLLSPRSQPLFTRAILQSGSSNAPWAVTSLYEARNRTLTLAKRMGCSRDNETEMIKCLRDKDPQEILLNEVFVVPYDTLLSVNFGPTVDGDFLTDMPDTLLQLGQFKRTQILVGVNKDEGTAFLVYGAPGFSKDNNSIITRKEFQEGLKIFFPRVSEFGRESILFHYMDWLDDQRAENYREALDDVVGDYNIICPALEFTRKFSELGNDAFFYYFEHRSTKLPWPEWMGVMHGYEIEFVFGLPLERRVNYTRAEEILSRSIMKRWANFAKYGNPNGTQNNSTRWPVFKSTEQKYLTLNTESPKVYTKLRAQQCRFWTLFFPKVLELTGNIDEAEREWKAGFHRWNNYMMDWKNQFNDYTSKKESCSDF

[8] = target: Acetylcholinesterase (Electrophorus electricus) (UniProt O42275); test: Binding affinity to electric eel AChE at 20-fold excess by STD-NMR menthod
Acetylcholinesterase (Electrophorus electricus), sequence (O42275 24-633 limits assumed): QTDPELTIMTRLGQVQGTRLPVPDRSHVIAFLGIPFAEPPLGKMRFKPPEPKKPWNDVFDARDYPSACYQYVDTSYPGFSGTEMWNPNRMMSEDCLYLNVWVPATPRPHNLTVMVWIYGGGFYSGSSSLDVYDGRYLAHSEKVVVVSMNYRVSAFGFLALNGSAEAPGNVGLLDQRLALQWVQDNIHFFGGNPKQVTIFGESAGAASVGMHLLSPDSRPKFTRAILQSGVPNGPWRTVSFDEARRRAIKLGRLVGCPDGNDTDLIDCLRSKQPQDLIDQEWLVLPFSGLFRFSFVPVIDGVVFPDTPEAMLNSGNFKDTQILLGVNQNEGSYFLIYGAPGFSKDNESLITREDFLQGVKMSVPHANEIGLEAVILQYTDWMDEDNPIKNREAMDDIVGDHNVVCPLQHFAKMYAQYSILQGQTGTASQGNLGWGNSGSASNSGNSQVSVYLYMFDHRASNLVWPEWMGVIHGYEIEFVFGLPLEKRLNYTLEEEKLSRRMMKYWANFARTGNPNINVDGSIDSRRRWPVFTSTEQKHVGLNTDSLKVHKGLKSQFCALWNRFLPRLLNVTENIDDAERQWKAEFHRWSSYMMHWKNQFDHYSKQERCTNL

[9] = target: Cholinesterase (Equus caballus) (UniProt P81908); test: Binding affinity to equine serum BuChE at 176 uM by trNOESY NMR method
[10] = target: Acetylcholinesterase (Electrophorus electricus) (UniProt O42275); test: Binding affinity to electric eel AChE at 260 uM by trNOESY NMR method
SH-SY5Y = test: Cytotoxicity against human SH-SY5Y cells assessed as cell death up to […] after 24 hrs by LDH release assay; assay type: cell-based
Rattus norvegicus [11] = test: In vivo inhibition of BuChE in Wistar rat at 80 mg/kg, ip measured after 60 mins by Ellman's method relative to control; assay type: functional; settings: 1 h
Rattus norvegicus [12] = test: In vivo inhibition of BuChE in Wistar rat administered ip measured after 60 mins by Ellman's method; assay type: functional, organism-based
in vitro [13] = settings: PAMPA; remark: listed apart in the source
Description: Permeability of the compound by PAMPA

SMILES	Papp at 2.5 h (in vitro [1])	Papp at 8 h, 500 µM (in vitro [2])	IC50 (Acetylcholinesterase [3])	IC50 (Cholinesterase [4])	also measured
Cn1c(=O)c2c(ncn2C)n(C)c1=O [CAFFEINE]	0.1 ×10⁻⁶ cm/s				
CO/N=C(\C(=O)N[C@@H]1C(=O)N2C(C(=O)O)=C(CSc3nc(=O)c(=O)[nH]n3C)CS[C@H]12)c1csc(N)n1 [CEFTRIAXONE]		0.1 ×10⁻⁶ cm/s			
CN(C)CCCN1c2ccccc2Sc2ccccc21 [PROMAZINE]	11.8 ×10⁻⁶ cm/s				
O=C(Cc1c[nH]c2ccccc12)NCCC1CCN(Cc2ccccc2)CC1	2.4 ×10⁻⁶ cm/s	0.1 ×10⁻⁶ cm/s	3550 nM	0.87 nM	inhibition (Cholinesterase [5]): Active; inhibition (Acetylcholinesterase [6]): Active; Activity [7]: Active; Activity [8]: Active; Activity [9]: Active; Activity [10]: Active
O=C(Cc1c[nH]c2ccc(Br)cc12)NCCC1CCN(Cc2ccccc2)CC1	5.8 ×10⁻⁶ cm/s	0.5 ×10⁻⁶ cm/s	1410 nM	0.68 nM	Activity (SH-SY5Y): Non-Toxic; inhibition in vivo at 80 mg/kg (Rattus norvegicus [11]): 15%; inhibition (Rattus norvegicus [12]): Dose-dependent effect
NC(=O)N1c2ccccc2C=Cc2ccccc21 [CARBAMAZEPINE]		11.2 ×10⁻⁶ cm/s			Papp (in vitro [13]): 11.3 ×10⁻⁶ cm/s
CNCCCN1c2ccccc2CCc2ccccc21 [DESIPRAMINE]	11.4 ×10⁻⁶ cm/s				
Nc1nc2c(ncn2COCCO)c(=O)[nH]1 [ACYCLOVIR]		0.1 ×10⁻⁶ cm/s			
O=C(CCc1c[nH]c2ccccc12)NCCC1CCN(Cc2ccccc2)CC1	2.2 ×10⁻⁶ cm/s	0.7 ×10⁻⁶ cm/s	5950 nM	0.89 nM	
Cc1[nH]c2ccccc2c1CC(=O)NCCC1CCN(Cc2ccccc2)CC1	2.3 ×10⁻⁶ cm/s	0.7 ×10⁻⁶ cm/s	7270 nM	1.09 nM	
Cn1cc(C(=O)NCCC2CCN(Cc3ccccc3)CC2)c2ccccc21	4.8 ×10⁻⁶ cm/s	4.6 ×10⁻⁶ cm/s	6110 nM	670 nM	
Cn1cc(CC(=O)NCCC2CCN(Cc3ccccc3)CC2)c2ccccc21	7.3 ×10⁻⁶ cm/s	5.5 ×10⁻⁶ cm/s	1420 nM	0.25 nM	
CN1C(C(=O)Nc2ccccn2)=C(O)c2ccccc2S1(=O)=O [PIROXICAM]	0.1 ×10⁻⁶ cm/s				
O=c1ccc2ccccc2o1 [COUMARIN]		19.3 ×10⁻⁶ cm/s			Papp (in vitro [13]): 22.1 ×10⁻⁶ cm/s
O=C(CCCc1c[nH]c2ccccc12)NCCC1CCN(Cc2ccccc2)CC1	3.9 ×10⁻⁶ cm/s	0.1 ×10⁻⁶ cm/s	1260 nM	12 nM	
